Columns and labels:
Assay type in all cases: cell-based
[1] = target: T1, human prostanoid IP receptor (Homo sapiens, UniProt P43119); assay: FLIPR Ca2+ signaling PG antagonist assay, IP stable cell line; settings: HEK-293 EBNA cells, human recombinant IP, no exogenous G-protein; standard agonist Cicaprost
T1 construct: expressed in transfected cells
Experimental: (§1) The above compounds were tested for PG antagonist activity as follows using human recombinant prostanoid receptor (DP1, EP1-4, FP, IP and TP) stable cell lines: In order to measure the response of Gs and Gi coupled prostanoid receptors as a Ca^2+ signal, chimeric G protein cDNAs were used. Stable cell lines over-expressing human prostanoid DP1, EP1-4, FP, IP, and TP receptors were established as follows:
(§2) Briefly, human prostanoid DP1, EP2, and EP4 receptor cDNAs were co-transfected with chimeric Gqs cDNA containing a haemagglutanin (HA) epitope; human prostanoid EP3 receptors were co-transfected with chimeric Gqi-HA; human EP1, FP, IP, and TP receptor cDNAs were expressed with no exogenous G-proteins. Gqs and Gqi chimeric cDNAs (Molecular Devices, Sunnyvale, Calif., U.S.A.), as well as cDNAs of prostanoid receptors, were cloned into a pCEP4 vector with a hygromycin B selection marker. Transfection into HEK-293 EBNA (Epstein-Barr virus nuclear antigen) cells was achieved by the FuGENE 6 transfection Reagent (Roche Applied Science, Indianapolis, Ind., USA). Stable transfectants were selected according to hygromycin resistance. Because Gqs and Gqi contained an HA epitope, G-protein expression was detected by Western blotting analysis using anti-mouse HA monoclonal antibody and horseradish peroxidase (HRP)-conjugated secondary antibody, while functional expression of prostanoid receptors was detected by FLIPR screening (Matias et al., 2004). These stable cell lines were validated using previously published antagonists at 10 μM against serial dilutions of standard agonists by FLIPR functional assays for Ca^2+ Signaling (as described below).
(§3) Ca^2+ signaling studies were performed using a FLIPR TETRA system (Molecular Devices, Sunnyvale, Calif., USA) in the 384-format. This is a high-throughput instrument for cell-based assays to monitor Ca^2+ signaling associated with GPCRs and ion channels. Cells were seeded at a density of 5×10^4 cells/well in BioCoat poly-D-lysine coated, black wall, clear bottom 384-well plates (BD Biosciences, Franklin lakes, NJ, USA) and allowed to attach overnight in an incubator at 37° C. The cells were then washed twice with HBSS-HEPES buffer (Hanks' balanced salt solution without bicarbonate and phenol red, 20 mM HEPES, pH 7.4) using an ELx405 Select CW Microplate Washer (BioTek, Winooski, Vt., USA). After 60 min of dye-loading in the dark using the Ca^2+-sensitive dye Fluo-4AM (Invitrogen, Carlsbad, Calif., USA), at a final concentration of 2×10^−6M, the plates were washed 4 times with HBSS-HEPES buffer to remove excess dye and leaving 50 μl of buffer in each well. The plates were then placed in the FLIPR TETRA instrument and allowed to equilibrate at 37° C. Compounds were added in a 25 μl volume to each well to give final concentrations of 0.1 μM, 0.3 μM, 1 μM, 3 μM, 10 μM, and 30 μM; or 0.067 μM, 0.1 μM, 0.2 μM, 0.3 μM, 0.67 μM, and 1 μM for cells over-expressing TP receptors. After 4.5 minutes, a 7-point serial dilution of the standard agonist for the corresponding receptor, in a 25 μl volume was injected at the final concentrations from 10^−11M to 10^−5M in 10-fold serial dilution increments for cells expressing human recombinant DP1, EP1, EP2, EP3, EP4, FP, and IP receptors. The dose range for the standard agonist for human recombinant TP receptors was from 10^−12M to 10^−6M. HBSS-HEPES buffer was used as the negative control for the standard agonists. Cells were excited with LED (light emitting diode) excitation at 470-495 nm and emission was measured through an emission filter at 515-575 nm. Assay plates were read for 3.5 minutes using the FLIPR^TETRA. The peak increase in fluorescence intensity was recorded for each well. On each plate, negative controls, dose response of positive controls, and co-treatments of antagonist-agonist for each dose were in triplicates. Standard agonists were as follows: DP=BW 245C, EP1-EP4=PGE2, FP=17-phenyl-PGF2α, IP=Cicaprost, and TP=U-46619. […]

[2] = target: T2, human prostanoid TP receptor (Homo sapiens, UniProt P21731); assay: FLIPR Ca2+ signaling PG antagonist assay, TP stable cell line; settings: HEK-293 EBNA cells, human recombinant TP, no exogenous G-protein; standard agonist U-46619
T2 construct: expressed in transfected cells
T2 sequence (P21731 1-343): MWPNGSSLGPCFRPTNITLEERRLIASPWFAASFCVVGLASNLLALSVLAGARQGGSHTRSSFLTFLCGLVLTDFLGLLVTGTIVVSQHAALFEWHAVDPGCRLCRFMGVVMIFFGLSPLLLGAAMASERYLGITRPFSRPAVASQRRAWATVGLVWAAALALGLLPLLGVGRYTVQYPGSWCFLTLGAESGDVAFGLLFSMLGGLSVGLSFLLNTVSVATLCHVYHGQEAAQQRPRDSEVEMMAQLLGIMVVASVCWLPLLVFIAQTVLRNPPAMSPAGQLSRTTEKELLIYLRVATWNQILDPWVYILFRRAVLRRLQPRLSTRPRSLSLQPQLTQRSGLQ
Experimental: as §1, §2, §3

[3] = target: T3, human prostanoid FP receptor (Homo sapiens, UniProt P43088); assay: FLIPR Ca2+ signaling PG antagonist assay, FP stable cell line; settings: HEK-293 EBNA cells, human recombinant FP, no exogenous G-protein; standard agonist 17-phenyl-PGF2α
T3 construct: expressed in transfected cells
Experimental: as §1, §2, §3

[4] = target: T4, human prostanoid DP1 receptor (Homo sapiens, UniProt Q13258); assay: FLIPR Ca2+ signaling PG antagonist assay, DP1 stable cell line; settings: HEK-293 EBNA cells, human recombinant DP1 with chimeric Gqs; standard agonist BW 245C; read-out: DP (Kb, PG antagonist activity)
T4 construct: expressed in transfected cells
T4 sequence (Q13258 1-359): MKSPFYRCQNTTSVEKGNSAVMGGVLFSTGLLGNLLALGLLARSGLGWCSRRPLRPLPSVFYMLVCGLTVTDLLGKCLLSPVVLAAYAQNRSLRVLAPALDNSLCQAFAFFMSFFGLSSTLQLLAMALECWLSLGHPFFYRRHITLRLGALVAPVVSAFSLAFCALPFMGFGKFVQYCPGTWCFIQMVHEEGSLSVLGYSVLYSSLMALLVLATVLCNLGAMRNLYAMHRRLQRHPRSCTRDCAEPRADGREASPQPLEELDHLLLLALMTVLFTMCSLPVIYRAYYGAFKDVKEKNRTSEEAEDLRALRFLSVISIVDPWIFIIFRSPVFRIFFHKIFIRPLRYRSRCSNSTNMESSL
Experimental: as §1, §2, §3

T1 sequence (P43119 whole entry): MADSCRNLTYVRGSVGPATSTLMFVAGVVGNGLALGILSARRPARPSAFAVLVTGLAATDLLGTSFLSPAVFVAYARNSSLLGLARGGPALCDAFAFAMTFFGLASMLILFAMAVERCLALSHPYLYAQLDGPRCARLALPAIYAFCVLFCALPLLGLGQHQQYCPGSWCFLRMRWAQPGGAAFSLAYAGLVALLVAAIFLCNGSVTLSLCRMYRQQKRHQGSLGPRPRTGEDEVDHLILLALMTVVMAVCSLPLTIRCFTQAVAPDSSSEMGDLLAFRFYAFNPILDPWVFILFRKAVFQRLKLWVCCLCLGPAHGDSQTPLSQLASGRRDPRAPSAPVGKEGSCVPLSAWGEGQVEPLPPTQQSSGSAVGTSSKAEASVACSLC
T3 sequence (P43088 whole entry): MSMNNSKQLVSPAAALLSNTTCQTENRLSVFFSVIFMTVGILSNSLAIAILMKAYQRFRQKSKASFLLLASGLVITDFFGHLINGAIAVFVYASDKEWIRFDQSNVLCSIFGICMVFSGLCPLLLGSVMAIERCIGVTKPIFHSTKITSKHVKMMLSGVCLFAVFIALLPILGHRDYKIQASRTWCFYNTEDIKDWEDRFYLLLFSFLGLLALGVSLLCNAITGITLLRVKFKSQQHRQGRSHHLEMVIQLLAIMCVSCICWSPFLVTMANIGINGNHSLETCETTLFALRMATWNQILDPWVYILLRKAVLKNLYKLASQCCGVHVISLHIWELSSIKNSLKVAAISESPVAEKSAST

Molecule | Kb [1] | Kb [2] | Kb [3] | Kb [4]
1-(5-Bromo-2-Isobutoxy-Benzyl)-1H-Pyrrolo[2,3-B]Pyridine-5-Carboxylic Acid [Example 30] | 6000 nM | 5 nM | – | –
1-[5-Bromo-2-(2-Ethyl-Butoxy)-Benzyl]-1H-Pyrrolo[2,3-B]Pyridine-5-Carboxylic Acid [Example 31] | 520 nM | – | – | –
CC(C)COc1ccc(Br)cc1Cn1cc2ccc(C(=O)O)cc2n1 [Example 43, 2-(5-Bromo-2-Isobutoxy-Benzyl)-2H-Indazole-6-Carboxylic Acid] | 4900 nM | 110 nM | 2200 nM | 2000 nM
CCC(CC)COc1ccc(OC(F)(F)F)cc1Cn1ccc2cc(C(=O)O)cnc21 [Example 76, 1-[2-(2-Ethyl-Butoxy)-5-Trifluoromethoxy-Benzyl]-1H-Pyrrolo[2,3-B]Pyridine-5-Carboxylic Acid] | 1400 nM | 20 nM | – | –
